In this assay the target is H3/HK68 HA (Influenza A virus, UniProt Q91MA7).

The values that follow come from patent publication US20230143470A1, “SMALL MOLECULE INHIBITORS OF INFLUENZA HEMAGGLUTININ” (THE SCRIPPS RESEARCH INSTITUTE, priority 2020, published 2023).

Sequence of H3/HK68 HA (Q91MA7 27-521 limits assumed): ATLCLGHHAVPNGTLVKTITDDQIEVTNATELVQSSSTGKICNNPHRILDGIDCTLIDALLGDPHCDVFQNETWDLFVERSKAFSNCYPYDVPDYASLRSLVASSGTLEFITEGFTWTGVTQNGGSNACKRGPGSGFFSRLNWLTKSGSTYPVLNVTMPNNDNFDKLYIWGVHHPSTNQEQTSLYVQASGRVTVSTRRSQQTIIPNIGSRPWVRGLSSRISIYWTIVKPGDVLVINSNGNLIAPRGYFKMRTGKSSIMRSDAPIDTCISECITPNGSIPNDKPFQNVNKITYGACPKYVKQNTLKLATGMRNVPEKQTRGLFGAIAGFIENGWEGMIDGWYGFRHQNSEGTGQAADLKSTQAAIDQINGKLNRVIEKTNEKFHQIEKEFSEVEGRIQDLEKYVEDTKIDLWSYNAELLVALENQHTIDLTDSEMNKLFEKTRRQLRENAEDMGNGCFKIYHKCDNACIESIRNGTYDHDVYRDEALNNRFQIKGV

For the molecule `O=C(c1ccc(Cl)cc1Cl)N1CCO[C@H](c2ccccc2)C1` [F0045(R)], the “melting temperature of H3/HK68 HA” value was “does not change”.

For the molecule `O=C(c1ccc(Cl)cc1Cl)N1CCO[C@@H](c2ccccc2)C1` [F0045(S)], the “melting temperature of H3/HK68 HA” value is on record as “does not change”.
